The first test has as its target Sphingosine 1-phosphate receptor 1 (Homo sapiens, UniProt P21453). Briefly: S1P1 receptor agonists, dose response, cell-based, agonist mode, 60K MLSMR set (AID 468).
Settings: not given
Chain of Sphingosine 1-phosphate receptor 1 (P21453 whole entry): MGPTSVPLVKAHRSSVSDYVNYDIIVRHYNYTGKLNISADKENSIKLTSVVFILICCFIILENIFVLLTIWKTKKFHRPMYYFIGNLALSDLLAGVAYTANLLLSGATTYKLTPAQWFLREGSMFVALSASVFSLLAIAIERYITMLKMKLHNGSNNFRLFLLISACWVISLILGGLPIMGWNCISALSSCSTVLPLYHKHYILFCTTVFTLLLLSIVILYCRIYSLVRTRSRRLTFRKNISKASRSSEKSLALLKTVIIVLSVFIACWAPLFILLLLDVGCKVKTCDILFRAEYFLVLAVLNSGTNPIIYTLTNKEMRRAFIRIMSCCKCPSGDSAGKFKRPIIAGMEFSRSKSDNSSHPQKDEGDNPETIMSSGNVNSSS
The molecule `Cc1ccc(-n2c(C)cc(C(=O)CSc3nnnn3C)c2C)cc1` [1-[2,5-dimethyl-1-(4-methylphenyl)-3-pyrrolyl]-2-[(1-methyl-5-tetrazolyl)thio]ethanone] displayed a 50% effective concentration (EC50) of 4.77 µM.

`COc1ccc(-n2c(C)cc(C(=O)CSc3nnc(-c4cccs4)o3)c2C)cc1` [1-[1-(4-methoxyphenyl)-2,5-dimethyl-3-pyrrolyl]-2-[(5-thiophen-2-yl-1,3,4-oxadiazol-2-yl)thio]ethanone] gave an EC50 of 2.03 µM.

Regarding `Cc1cc(C)cc(-c2nc(-c3ccncc3)no2)c1` [5-(3,5-dimethylphenyl)-3-(4-pyridyl)-1,2,4-oxadiazole], a half-maximal response (EC50) required 2.05 µM.

In the case of `CN1/C(=C/C(=O)c2nc(S(C)(=O)=O)ncc2Cl)C(C)(C)c2ccccc21`, the concentration giving a half-maximal response (EC50) amounted to 8.79 µM.

As for `O=C(CSc1nnc(-c2cc3ccccc3cc2O)n1Cc1ccco1)c1ccc(F)cc1` [(3Z)-3-[3-[2-(4-fluorophenyl)-2-oxidanylidene-ethyl]sulfanyl-4-(furan-2-ylmethyl)-1H-1,2,4-triazol-5-ylidene]naphthalen-2-one], the EC50 was 19.8 µM.

As for `COc1ccc(-n2nc3ccc(NS(C)(=O)=O)cc3n2)cc1Cl` [MLS000049114], the EC50 amounted to 0.148 µM.

`Cc1ccccc1-n1c(SCC(=O)c2cc(C)n(C)c2C)nnc1-c1ccncc1` [2-[[4-(2-methylphenyl)-5-pyridin-4-yl-1,2,4-triazol-3-yl]sulfanyl]-1-(1,2,5-trimethylpyrrol-3-yl)ethanone] returned an EC50 of 10 µM.

`COc1ccccc1N=C(N)Nc1nc(CSc2ccc(C)cc2)cc(=O)[nH]1` [1-(2-methoxyphenyl)-2-[6-[[(4-methylphenyl)thio]methyl]-4-oxo-1H-pyrimidin-2-yl]guanidine] registered an EC50 of 7.29 µM.

With `CCCC(=O)Nc1ccc2oc(-c3ccc(OC)c(Br)c3)nc2c1` [MLS000042482], the EC50 is 4.96 µM.

In turn, `CCn1c(-c2cccc(Cl)c2)n[nH]c1=S` [SMR000104244] had an EC50 greater than 95 µM.

`CC(=N)C(C#N)C(=O)CSc1nc2cc(Cl)ccc2s1` (configuration not stated) [(E)-3-amino-2-[2-[(5-chloro-1,3-benzothiazol-2-yl)sulfanyl]acetyl]but-2-enenitrile] had an EC50 of 15.6 µM.

In the case of `COc1cccc(N2CCN(c3ncnc4c3[nH]c3ccccc34)CC2C)c1` (configuration not stated) [4-[4-(3-methoxyphenyl)-3-methyl-1-piperazinyl]-5H-pyrimido[5,4-b]indole], the EC50 came out at 3.73 µM.

Regarding `CCC(=O)Nc1ccc2c(c1)C(=O)N(C1CCCCC1)C2=O` [MLS000099936], the EC50 was greater than 30 µM.

Turning to `COc1ccc(-c2nc(-c3cccc(C)c3)no2)cc1OC` [5-(3,4-dimethoxyphenyl)-3-(3-methylphenyl)-1,2,4-oxadiazole], a half-maximal effect (EC50) was put at 1.48 µM.

Consider `CC1(C)CC(=O)C(=CNc2ccc3[nH]ncc3c2)C(=O)C1` [SMR000111453], for which the EC50 was determined as 5.07 µM.

In turn, `COc1ccccc1-n1nnnc1S(=O)(=O)Cc1ccc(Cl)cc1` [5-(4-chlorobenzyl)sulfonyl-1-(2-methoxyphenyl)tetrazole] yielded an EC50 of 3.61 µM.

For the molecule `CCOC(=O)CN(C(=O)CSc1nnc(-c2cccc(OC)c2)o1)c1ccc(F)cc1` [((4-Fluoro-phenyl)-{2-[5-(3-methoxy-phenyl)-[1,3,4]oxadiazol-2-ylsulfanyl]-acetyl}-amino)-acetic acid ethyl ester], the response was half-maximal at 3.17 µM (EC50).

On to `Cc1nn(Cc2ccc(Cl)c(Cl)c2)c(C)c1NC(=O)c1cc(CC(C)C)on1` [MLS000116412], for which the EC50 stood at 9.16 µM.

The molecule `O=C(CSc1nnc(Cn2nnc3ccccc32)o1)N(Cc1ccc(F)cc1)c1ccccc1` [2-(5-Benzotriazol-1-ylmethyl-[1,3,4]oxadiazol-2-ylsulfanyl)-N-(4-fluoro-benzyl)-N-phenyl-acetamide] displayed an EC50 of 5.09 µM.

The molecule `CCSc1nnc(NC(=O)C(Cc2ccccc2)n2cccc2)s1` (configuration not stated) [MLS000119034] came in with an EC50 greater than 30 µM.

In turn, `CCC(C)c1ccc2oc(-c3ccc(NC(=O)Cn4cnc5c(=O)n(C)c(=O)n(C)c54)cc3)nc2c1` (configuration not stated) [2-(2,6-diketo-1,3-dimethyl-purin-9-yl)-N-[4-(5-sec-butyl-1,3-benzoxazol-2-yl)phenyl]acetamide] displayed an EC50 of 2.02 µM.

Regarding `Cc1nn(Cc2ccc(Cl)c(Cl)c2)c(C)c1NC(=O)c1cc(-c2ccco2)on1` [MLS000087229], the response was half-maximal at 5.63 µM (EC50).

On to `O=S(=O)(NCc1cn2ccsc2n1)c1ccc(Oc2ccccc2)cc1` [MLS000094195], for which the EC50 came out at 6.07 µM.

`Nc1nnnn1N=C/C(Br)=C/c1ccccc1` [1-[[(Z)-2-bromanyl-3-phenyl-prop-2-enylidene]amino]-1,2,3,4-tetrazol-5-amine] came in with an EC50 greater than 10 µM.

Molecule `CCN(CC)C(=O)CS/C(=N/C#N)Nc1ccccc1F` [2-[[N-cyano-N'-(2-fluorophenyl)amidino]thio]-N,N-diethyl-acetamide] had an EC50 greater than 95 µM.

Turning to `c1ccc(N2CCN(c3ncnc4c3oc3ccccc34)CC2)cc1` [4-(4-phenyl-1-piperazinyl)benzofuro[3,2-d]pyrimidine], the EC50 is greater than 95 µM.

Consider `O=C1C2CCCN2C(c2cccnc2)N1c1cccc(Cl)c1` (configuration not stated) [2-(3-chlorophenyl)-3-(3-pyridinyl)-5,6,7,7a-tetrahydro-3H-pyrrolo[1,2-c]imidazol-1-one], for which the half-maximal effective concentration (EC50) is greater than 95.1 µM.

`CC1=NC(=O)NC(c2ccc(F)cc2)C1C(=O)OCc1ccc2c(c1)OCO2` (configuration not stated) [1,3-benzodioxol-5-ylmethyl 4-(4-fluorophenyl)-6-methyl-2-oxidanylidene-3,4-dihydro-1H-pyrimidine-5-carboxylate] displayed an EC50 of 0.437 µM.

`COc1ccc(C(=O)C2C(=O)C(=O)N(CC3CCCO3)C2c2cccc(OC)c2)cc1` (configuration not stated) [(4Z)-4-[hydroxy-(4-methoxyphenyl)methylene]-5-(3-methoxyphenyl)-1-(tetrahydrofurfuryl)pyrrolidine-2,3-quinone] showed an EC50 greater than 95.1 µM.

In the case of `CCOc1ccc(C(=O)Nc2ccc(Cl)cn2)cc1Cl` [3-chloranyl-N-(5-chloranylpyridin-2-yl)-4-ethoxy-benzamide], the EC50 was determined as 5.51 µM.

In turn, `COc1ccc(-c2noc(-c3ccccc3F)n2)cc1` [5-(2-fluorophenyl)-3-(4-methoxyphenyl)-1,2,4-oxadiazole] registered an EC50 of 7.38 µM.

`CCc1ccc(N(CC)c2ncnc3nc[nH]c23)cc1` had an EC50 of 6.03 µM.

The same test, now with this note: inactive by the depositor's call.
In turn, `Cc1nn(Cc2ccccc2)c(C)c1C(=O)OCC(=O)c1cc(C)n(C2CC2)c1C` [1-benzyl-3,5-dimethyl-pyrazole-4-carboxylic acid [2-(1-cyclopropyl-2,5-dimethyl-pyrrol-3-yl)-2-keto-ethyl] ester] displayed an EC50 of 13.9 µM.

Molecule `O=C(c1ccco1)N1CCN(c2ncnc3c2[nH]c2ccc(Br)cc23)CC1` [MLS000078404] registered an EC50 of 13.9 µM.

Consider `CC(=O)N1CCCc2cc(S(=O)(=O)NCCC3=CCCCC3)ccc21` [1-acetyl-N-(2-cyclohex-1-en-1-ylethyl)-1,2,3,4-tetrahydroquinoline-6-sulfonamide], for which the midpoint of the response, the EC50, lay at 14.5 µM.

The molecule `Nc1c(C(=O)NC2CCCC2)sc2nc(-c3cccs3)ccc12` [3-Amino-6-thiophen-2-yl-thieno[2,3-b]pyridine-2-carboxylic acid cyclopentylamide] gave an EC50 of 14.4 µM.

`COc1cccc(-c2nc(-c3ccc(NC(=O)c4cccnc4)cc3)no2)c1` [MLS000047254]: a half-maximal response (EC50) required 26.1 µM.

Regarding `Cc1nc2sc(-c3ccccc3)cc2c(=O)n1-n1cccc1` [2-methyl-6-phenyl-3-(1-pyrrolyl)-4-thieno[2,3-d]pyrimidinone], the EC50 was determined as 22.2 µM.

For the molecule `O=C1CC(N2CCN(C/C=C/c3ccccc3)CC2)C(=O)N1CCc1ccccc1` (configuration not stated) [1-(2-phenylethyl)-3-[4-[(E)-3-phenylprop-2-enyl]-1-piperazinyl]pyrrolidine-2,5-dione], it took 20 µM to reach a half-maximal effect (EC50).

The molecule `O=C(NCc1ccco1)C1CCN(C(=O)c2cc3sccc3n2Cc2ccc(Cl)cc2)CC1` [1-[4-(4-chlorobenzyl)thieno[3,2-b]pyrrole-5-carbonyl]-N-(2-furfuryl)isonipecotamide] came in with a 50% effective concentration (EC50) of 10.6 µM.

As to `Cc1ccc(S(=O)(=O)n2nc(C)c(Br)c2C)c(C)c1C` [4-bromanyl-3,5-dimethyl-1-(2,3,4-trimethylphenyl)sulfonyl-pyrazole], the midpoint of the response, the EC50, lay at 88 µM.

For the molecule `COc1ccc(S(=O)(=O)Cc2ccc(C(=O)N3CCN(c4ccc(Cl)cc4)CC3)o2)cc1` [MLS000120227], the midpoint of the response, the EC50, lay at 13.7 µM.

`O=C(CSc1nnc(-c2ccc(Cl)cc2)n1Cc1ccco1)c1cccs1` [2-[[5-(4-chlorophenyl)-4-(2-furanylmethyl)-1,2,4-triazol-3-yl]thio]-1-thiophen-2-ylethanone] came in with an EC50 of 17.3 µM.

For `Nn1c(Nc2ccccc2)nc2sc3c(c2c1=O)CCC3` [2-amino-3-anilino-7,8-dihydro-6H-cyclopenta[2,3]thieno[2,4-b]pyrimidin-1-one], the EC50 was 16.4 µM.

`c1ccc(-c2ccc(-c3nc(-c4ccncc4)no3)cc2)cc1` [5-(4-phenylphenyl)-3-(4-pyridyl)-1,2,4-oxadiazole] returned an EC50 of 10.4 µM.

The molecule `Cc1ccc(Cl)cc1N1CCN(C(=O)C2CCN(c3nnc(-n4cccc4)s3)CC2)CC1` [MLS000119702] showed an EC50 of 34.4 µM.

On to `Cc1ccc(-c2nc(COC(=O)c3c(C)noc3C)cs2)cc1` [3,5-dimethyl-4-isoxazolecarboxylic acid [2-(4-methylphenyl)-4-thiazolyl]methyl ester], for which the response was half-maximal at 26.2 µM (EC50).

With `Cc1ccc(C(=O)Nc2nc(COc3ccccc3)cs2)s1` [5-methyl-N-[4-(phenoxymethyl)-1,3-thiazol-2-yl]thiophene-2-carboxamide], a half-maximal response (EC50) required 12.1 µM.

For `Cc1ccc(Cl)cc1N1CCN(C(=O)COc2ccc(S(=O)(=O)NC(C)C)cc2)CC1` [4-[2-[4-(5-chloranyl-2-methyl-phenyl)piperazin-1-yl]-2-oxidanylidene-ethoxy]-N-propan-2-yl-benzenesulfonamide], the midpoint of the response, the EC50, lay at 12 µM.

Turning to `Clc1ccc(-c2nc3nc4ccccc4nc3n2Cc2ccco2)cc1` [2-(4-chlorophenyl)-3-(2-furanylmethyl)imidazo[4,5-b]quinoxaline], the midpoint of the response, the EC50, lay at 25.3 µM.

In turn, `CC1=CC(C)(C)Nc2ccc(OC(=O)c3cccnc3)cc21` [(2,2,4-trimethyl-1H-quinolin-6-yl) pyridine-3-carboxylate] showed an EC50 of 11.4 µM.

The molecule `Cc1cccc(OCCCCc2c(C)n[nH]c2C)c1` [SMR000103102] yielded an EC50 of 11.5 µM.

For the origin of these results see BindingDB's records for doi:10.7270/Q2251GJ9 (The Scripps Research Institute Molecular Screening Center, 2007).
